The record followed here is paper PMC8443589, “Modelling human liver fibrosis in the context of non-alcoholic steatohepatitis using a microphysiological system” (Communications Biology, 2021).

Series [1] in a line: Metabolic turnover (T1/2) in NASH liver microtissues in the MPS platform, LC-MS/MS. Format: in vitro ADME, human. Particulars: human, NASH liver microtissues grown 7 days, medium sampled across 48 h. On the procedure: (§1) Despite many on-going clinical trials, there is still no approved treatment for NASH, but emerging data provide confidence that NASH is a pharmacologically responsive disease. […] First, we set out to determine an optimal dosing strategy for each of the treatments based on an assessment of their physicochemical properties and pharmacokinetic behaviour within the MPS device (Table 1). Non-specific binding to the MPS device was determined after a 72 h incubation with each candidate drug at 1 μM (Table 1). Both candidate drugs were calculated to have less than 0.1% loss as a consequence of non-specific binding to the MPS device (Table 1). […] Because the hepatocytes within the MPS device are metabolically competent, we evaluated the half-life for each candidate drug in NASH microtissues.
(§2) To determine the metabolic turnover of obeticholic acid and elafibranor in the MPS platform, both compounds were incubated with liver microtissues for 48 h starting at 1 µM and media samples taken at regular intervals (AdooQ Bioscience, UK). The presence of each compound in the cell culture medium was quantified by liquid chromatography-tandem mass spectrometry (LC-MS/MS). Samples were separated using a Waters Acquity UPLC system with an ACE Excel C18-AR column and analysed on a Waters TQ-S Micro mass spectrometer against quantitative standard curves. Both compounds were also assessed for protein binding in HEP-Fat media using rapid equilibrium dialysis (RED) and quantified using the same LC-MS/MS methodology.
(§3) Supplemental Figure 5 – Obeticholic acid and Elafibranor are metabolised in the NASH MPS model.
(§4) The metabolism of a) Elafibranor and b) Obeticholic acid and was assessed in PHH, KC and HSC co-cultures grown in the liver MPS platform for 7 days. Following a double media exchange the compounds were incubated with the microtissues at a starting concentration of 1 µM and media samples taken at regular intervals across 48 hours. Media samples were assessed for the concentration of compound by quantitative LC-MS.
(§5) (1 picture or pasted object on this page, not shown here)

In series [2] the test system is NASH liver microtissues (PHH, KC and HSC co-cultures). The series is described as above. In kind it is in vitro ADME, human. Particulars: 1 µM, 48 hours. On the procedure: as §1, §2, §3, §4, §5
For series [3], the system named is liver MPS NASH model (PHH, KC and HSC co-cultures, high fat). The series is described as follows: Cell health in dosed NASH microtissues: tissue density (Hoechst) and albumin production (ELISA). Particulars: for cytotoxicity in NASH microtissues: QD for 10 days. Format: cell-based, human. As for the experimental part:
Following 10 days of compound treatment (Supp. Fig. 6a), NASH microtissues were assessed for the production of inflammatory and fibrotic biomarkers (Fig. 3a), the expression of pro-fibrotic genes (Fig. 3b) and the expression of collagen-1 and alpha SMA (Fig. 3c, d). […] Crucially using the developed quantitative imaging approach, both OCA and ELF abrogated α-SMA expression in a concentration-dependent manner by up to 50% and collagen-1 deposition was reduced by up to 35% (Fig. 3d).
Soluble biomarkers in cell culture medium from the MPS were analysed by enzyme-linked immunosorbent assay (ELISA); IL-6 was measured by Human IL-6 DuoSet ELISA (R&D Systems); MCP-1 was measured by Human CCL2/MCP-1 DuoSet ELISA (R&D Systems); pro-collagen 1 was measured by Human Pro-Collagen I α1 DuoSet (R&D Systems); TIMP-1 was measured by Human TIMP-1 Quantikine ELISA Kit (R&D Systems); Fibronectin was measured by Human Fibronectin DuoSet ELISA (R&D Systems); YKL-40 was measured by Human Chitinase 3-like 1 Quantikine ELISA Kit (R&D Systems); Albumin secretion was measured by Human Albumin AssayMax™ ELISA kit (Assay Pro, St. Charles, MO). For all assays, the manufacturer’s protocol was followed.
Supplemental Figure 6 – Treatment of NASH microtissues in MPS platform with Obeticholic acid and […]
PHH, KC and HSC co-cultures were cultured in the MPS platform under high fat conditions and dosed with varying concentrations of Obeticholic acid (OCA) and Elafibranor (ELF) dosed QD for 10 days, following an initial 4-day pre-culture phase. A) Overview of the experimental timeline. B) Tissue density of scaffolds from each control was assessed by quantifying Hoechst staining in each FOV (8 FOV per culture) at the end of the study. C) Albumin production between conditions was compared by ELISA at two timepoints. All datapoint are shown and error bars highlight means ± SD.
as §5
For orientation: An ELISA detects its analyte on a solid surface through an enzyme-linked reagent.

`CSc1ccc(C(=O)/C=C/c2cc(C)c(OC(C)(C)C(=O)O)c(C)c2)cc1` [Elafibranor]: the half-life (usually the time in which the quantity being followed falls by half) at 1 µM in series [1] was 16 h. Further, the “metabolism in the NASH MPS model” value in series [2] was “metabolised”. The “cytotoxicity in NASH microtissues” value in series [3] is reported as “does not cause cytotoxicity”. The “Albumin production” value in series [3] (higher doses, 10 days of compound treatment) is given as “slightly reduce albumin production”.
For the compound `CC[C@H]1[C@@H](O)[C@@H]2[C@H](CC[C@]3(C)[C@@H]([C@H](C)CCC(=O)O)CC[C@@H]23)[C@@]2(C)CC[C@@H](O)C[C@@H]12` [Obeticholic acid], the half-life at 1 µM in series [1] was 12 h. For the same compound, the “metabolism in the NASH MPS model” value in series [2] is on record as “metabolised”. Also, in series [3], the “cytotoxicity in NASH microtissues” value is “does not cause cytotoxicity”.
